Laboratory results as given in patent publication EP2608671B1, “COMPOUNDS FOR TREATMENT OF CANCER” (Gtx, Inc., priority 2010, dated 2012).
Where two headings read alike, the source gives them in different places.

Assays:
PPC-1 [1] = test: cells; conditions: Homo sapiens, PPC-1, 96 h, read-out: IC50 ± SEM (nM), PPC-1
DU 145 = test: cells; conditions: Homo sapiens, DU-145, 96 h, read-out: IC50 ± SEM (nM), DU 145
PC-3 = test: cells
Description: (§1) The only compounds which belong to the invention are the ones falling under the scope of formula (XI).
Cells were stained with SRB solution.
Cells. […] Cells between the third and fifth passages were used for experiments.
Cell growth inhibition studies. […] Cells were stained with sulphorhodamine B (SRB) solution.

LNCaP = test: cells; conditions: Homo sapiens, 96 h, read-out: IC50 ± SEM (nM), LNCaP
B16-F1 = test: SRB cell growth inhibition (cytotoxicity) assay; assay type: cell-based, mouse
Description: as §1

[2] = tested on: prostate cancer cell lines (LNCaP, DU 145, PC-3, PPC-1); test: SRB cytotoxicity, prostate cancer cell panel (text summaries); assay type: cell-based; conditions: Homo sapiens, read-out: IC50 against prostate cancer cells
Description: as §1

A375 = test: SRB cell growth inhibition (cytotoxicity) assay; assay type: cell-based, human
NCI/ADR-RES = test: SRB growth inhibition, P-gp over-expressing MDR line; assay type: cell-based, human; conditions: for Resistance factor: NCI/ADR-RES vs OVCAR-8, 5760 min; for IC50: Homo sapiens, NCI/ADR-RES, P-gp over-expressed MDR cell line, Table 5A, read-out: IC50 (nM), NCI/ADR-RES
[3] = rat
OVCAR-8 = test: SRB growth inhibition, MDR model parent line; assay type: cell-based, human; conditions: Homo sapiens, OVCAR-8; Table 5A; read-out: IC50 (nM), OVCAR-8
PPC-1 [4] = tested on: PPC-1
WM-164 = test: SRB cell growth inhibition (cytotoxicity) assay; assay type: cell-based, human; conditions: Table 6A; read-out: IC50 (nM), WM164
[5] = Homo sapiens, PC-3, 96 h, read-out: IC50 ± SEM (nM), PC-3
[6] = Mus musculus, B16-F1, read-out: IC50 ± SEM (nM), B16-F1
[7] = Homo sapiens, A-375, 96 h, read-out: IC50 ± SEM (nM), A375
[8] = summary over LNCaP, PC-3, DU-145, PPC-1
[9] = IV, […] (1h, 2r), 5 mg/kg (5Ha, 5Hc)

Compound	IC50 (PPC-1 [1])	IC50 (DU 145)	IC50 (PC-3; [5])	IC50 (LNCaP)	IC50 (B16-F1; [6])	IC50 ([2]; summary of Table 1)	IC50 (A375; [7])	IC50 [2, 8]	other results
COc1cc(C(=O)c2cc(-c3ccccc3)ncn2)cc(OC)c1OC [1b, (6-Phenylpyrimidin-4-yl)(3,4,5-trimethoxyphenyl)methanone]	3700 nM	6900 nM	8300 nM	7000 nM	> 30000 nM	3.7 to 8.3 µM	> 30000 nM		
COc1cc(C(=O)c2cccc(-c3ccccc3)n2)cc(OC)c1OC [1c, (6-Phenylpyridin-2-yl)(3,4,5-trimethoxyphenyl)methanone]								0.012 to 0.035 µM	Resistance factor (NCI/ADR-RES): 0.4
COc1cc(C(=O)c2ccc(-c3ccccc3)o2)cc(OC)c1OC [1d, (5-Phenylfuran-2-yl)(3,4,5-trimethoxyphenyl)methanone]	20 nM	35 nM	21 nM	23 nM	151 ± 24 nM		27 ± 8 nM	0.012 to 0.035 µM	
COc1cc(C(=O)c2cnc(-c3ccccc3)s2)cc(OC)c1OC [1e, (2-Phenylthiazol-5-yl)(3,4,5-trimethoxyphenyl)methanone]	> 10000 nM	> 10000 nM	> 10000 nM	> 10000 nM	12500 ± 5200 nM	> 10 µM	13600 ± 3800 nM		
COc1cc(C(=O)c2csc(-c3ccccc3)c2)cc(OC)c1OC [1f, (5-Phenylthiophen-3-yl)(3,4,5-trimethoxyphenyl)methanone]	15 nM	26 nM	12 nM		72 ± 15 nM		15 ± 6 nM	0.012 to 0.035 µM	
COc1cc(C(=O)N2CCC(c3ccccc3)CC2)cc(OC)c1OC [1g, (4-Phenylpiperidin-1-yl)(3,4,5-trimethoxyphenyl)methanone]	> 20000 nM	> 20000 nM	> 20000 nM	> 20000 nM	> 30000 nM	> 20 µM	> 30000 nM		
COc1cc(C(=O)c2cc(-c3ccccc3)on2)cc(OC)c1OC [1i, (5-Phenylisoxazol-3-yl)(3,4,5-trimethoxyphenyl)methanone]	> 10000 nM	> 10000 nM	> 10000 nM	> 10000 nM	> 30000 nM	> 10 µM	> 30000 nM		
COc1cc(C(=O)c2csc(Nc3ccc(F)cc3)n2)cc(OC)c1OC.Cl [5Hc, (2-(p-Fluorophenylamino)thiazol-4-yl)(3,4,5-trimethoxyphenyl)methanone hydrochloride salt]									CL (mL/min/kg), systemic clearance [3, 9]: 13 ± 2 mL/min/kg; Vss (L/kg), volume of distribution [3, 9]: 1.4 ± 0.2 L/kg; increased exposure (AUC) by the oral route as compared to 1h ([3]; in vivo, po): more than 4.3 fold; F (%), percent oral bioavailability ([3]; Table 4, 10 mg/kg): 21%
COc1cc(C(=O)c2csc(Nc3ccc(C)cc3)n2)cc(OC)c1OC [5b, (2-(p-Tolylamino)thiazol-4-yl)(3,4,5-trimethoxyphenyl)methanone]									IC50 (NCI/ADR-RES): 21 nM; Resistance factor (NCI/ADR-RES): 0.8; IC50 (OVCAR-8): 28 nM
COc1cc(C(=O)c2csc(Nc3ccc(F)cc3)n2)cc(OC)c1OC [5c, (2-(p-Fluorophenylamino)thiazol-4-yl)(3,4,5-trimethoxyphenyl)methanone]		63 ± 1 nM	43 ± 1 nM	41 ± 1 nM					IC50 (NCI/ADR-RES): 25 ± 6 nM; Resistance factor (NCI/ADR-RES): 0.6; IC50 (OVCAR-8): 44 ± 3 nM
COc1cc(C(=O)c2c[nH]c(Nc3ccccc3)n2)cc(OC)c1OC [5e, (2-(Phenylamino)-1H-imidazol-4-yl)(3,4,5-trimethoxyphenyl)methanone]	> 1000 nM	> 1000 nM	> 1000 nM	> 1000 nM				> 1 µM	
COc1cc(C(=O)[C@H]2COC(c3ccccc3)=N2)cc(OC)c1OC [35a, (2R)-(2-Phenyl-4,5-dihydro-oxazol-4-yl)-(3,4,5-trimethoxy-phenyl)-methanone]									IC50 (PPC-1 [4]; read-out: IC50 ± SEM (nM), PPC-1, SRB assay, 96 h, Tables 1, 2, 3, 5B, 5C): 1100 ± 100 nM; IC50 (B16-F1; SRB assay, Tables 1, 2, 3, 5B, 5C, read-out: IC50 ± SEM (nM), B16-F1): 6500 ± 800 nM; IC50 (A375; SRB assay, 96 h, Tables 1, 2, 3, 5B, 5C, read-out: IC50 ± SEM (nM), A375): 500 ± 100 nM
(1-(phenylsulfonyl)-2-(1-(phenylsulfonyl)-1H-indol-3-yl)-1H-imidazol-4-yl)(3,4,5-trimethoxyphenyl)methanone [17yaa]									IC50 (WM-164): 468 nM; IC50 (PPC-1 [4]; read-out: IC50 (nM), PPC-1, Table 6A): 209 nM; IC50 (PC-3; read-out: IC50 (nM), PC-3, Table 6A): 148 nM; IC50 (B16-F1; Table 6A, read-out: IC50 (nM), B16-F1): 539 nM; IC50 (A375; Table 6A, read-out: IC50 (nM), A375): 481 nM
